According to patent US20240294572A1, “Antimicrobial Peptides” (priority 2021, published 2024):
Converted amounts (≈) assume the structure as drawn. Non-standard residues stand in square brackets, D forms with d. Residues, ends and D or L forms follow the SMILES beside them. *: point of attachment. Decanoyl = CCCCCCCCCC(=O)*

What was measured:
[1] = test system: P. aeruginosa PAO1; type: cell-based
Summary of the method: (§1)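 Broth microdilution per CLSI M07-A10 with minor changes: 2-fold peptide dilutions plus log-phase bacteria (OD600 ~0.5) diluted to 0.001 OD, in TSB. Incubated overnight at 37 °C; growth read at 630 nm.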

[2] = test system: clinical strains of S. aureus, including USA200, USA400, Newman, and Mu50; type: cell-based
Summary of the method: as §1

[3] = test system: S. aureus USA300 LAC; experiment: Bacterial resistance development, multiple passage experiment; type: cell-based; conditions: 14 passages/days at sub-MIC
Method: This experiment was performed similar to the MIC determination with a few modifications as described (Mishra, et al. (2019) Proc. Natl. Acad. Sci., 116:13517-13522). In short, an exponential phase S. aureus USA300 culture (i.e., optical density at 600 nm≈0.5) was diluted and partitioned into a 96-well polystyrene microplate with ˜10^5 bacteria per well (90 μL aliquots). After treatment with 10 μL of peptide or nafcillin solutions at various concentrations, microplates were incubated at 37° C. overnight and read on a ChroMate® 4300 Microplate Reader at 630 nm (Awareness Technology, FL). Of the wells with sub-MIC levels of the peptides that retained growth, approximately half of the control wells were again reinoculated in fresh TSB with sub-MIC concertation of peptides or antibiotics to attain exponential phase for MIC determination. Up to 15 serial passages of the bacteria cultures were conducted. The increase in the fold change (MIC on given passage/MIC recorded in first day of passage) was used to determine the degree of drug resistance.

[4] = test system: S. aureus USA300 LAC; experiment: Catheter-associated murine biofilm model; type: in vivo, mice; conditions: single dose 15 mg/kg (250 μg) into and around catheter, day 3
Method: Peptide potency was evaluated in the catheter model as described (Wang, et al. (2014) ACS Chem. Biol., 9:1997-2002; Heim, et al. (2014) Methods Mol. Biol., 1106:183-191). On the day of infection, mice were anesthetized using ketamine/xylazine (100/10 mg/kg). A small incision was made on the left flank region of the mouse, and using small blunt spatula, a pouch was made for catheter insertion. A sterile catheter with a length of 1 cm was inserted into the pouch aseptically. The wound was sealed using wound closure VetBond™ glue. Bacterial inoculum (20 μL with 10^3 CFU) was injected into the lumen of the catheter. Two hours post infection, the peptide was injected at 15 mg/kg (50 μL at each of the five sites in and around the catheter). Mice were allowed full recovery from anesthesia in an oxygen-enriched chamber. Three days after infection, untreated and treated animal groups were CO2 euthanized and the tissue around the catheter was harvested along with the catheter. A bacterial uninfected catheter group was included as a negative control. All the catheters were sonicated at 37 kHz for 15 minutes to release the bacteria in biofilms, and the tissues were homogenized. […] Degree of significance was represented as *p<0.05**p<0.01, ***p<0.001, and NS means no significance (determined by nonparametric, unpaired, Mann-Whitney test).

[5] = test system: S. aureus JE2 (SAUSA300, wild type); type: cell-based; conditions: JE2 (SA, wild type)
Method: (§2) The antimicrobial susceptibility of over 20 MRSA transposon mutants were also tested, based on a transposon library screening, in the presence of LL-37 peptides (Golla, et al. (2020) ACS Infect. Dis., 6:1866-1881). This Nebraska Transposon Mutant Library of S. aureus USA300 consists of 1920 mutants, each with one nonessential gene disabled due to a transposon insertion (Fey, et al. (2013) mBio 4:e00537-12). The correct insertion of the transposon to each Staph mutant had been verified (Golla, et al. (2020) ACS Infect. Dis., 6:1866-1881). Antimicrobial susceptibility to the new peptide C10-KR8d was evaluated in the same manner as MIC assays. Susceptible strains could be inhibited at a peptide concentration lower than the MIC against the wild strain S. aureus JE2.

[6] = test system: S. aureus USA300 transposon mutant SAUSA300_0647 (vraF); type: cell-based
Method: as §2

[7] = test system: S. aureus USA300 transposon mutant SAUSA300_1036; type: cell-based
Method: as §2

[8] = test system: S. aureus USA300 transposon mutant SAUSA300_1228 (thrB); type: cell-based
Method: as §2

[9] = test system: S. aureus USA300 transposon mutant SAUSA300_1515; type: cell-based
Method: as §2

[10] = test system: S. aureus USA300 transposon mutant SAUSA300_1962; type: cell-based
Method: as §2

Row | SMILES | MIC (μM) PA [1] [µM] | MIC against clinical strains of S. aureus [2] [µM] | MIC increase in multiple passage experiment [3] | bacterial burden (CFU) on catheter and surrounding tissue [4] | MIC [5] [µM] | Susceptible? ([6]; mutant SAUSA300_0647 vraF versus WT) | MIC ([6]; mutant SAUSA300_0647 vraF, 50% TSB) [µM] | MIC ([7]; mutant SAUSA300_1036, 50% TSB) [µM] | Susceptible? ([7]; mutant SAUSA300_1036 versus WT) | Susceptible? ([8]; mutant SAUSA300_1228 thrB versus WT) | MIC ([8]; mutant SAUSA300_1228 thrB, 50% TSB) [µM] | MIC ([9]; mutant SAUSA300_1515, 50% TSB) [µM] | Susceptible? ([9]; mutant SAUSA300_1515 versus WT) | MIC ([10]; mutant SAUSA300_1962, 50% TSB) [µM] | Susceptible? ([10]; mutant SAUSA300_1962 versus WT)
1 | CCCCCCCCCC(=O)N[C@@H](CCCCN)C(=O)N[C@@H](CCCNC(=N)N)C(=O)N[C@H](C(=O)N[C@@H](Cc1c[nH]c2ccccc12)C(=O)N[C@@H](CCC(N)=O)C(=O)N[C@@H](CCCNC(=N)N)C(=O)N[C@H](C(=O)N[C@@H](CCCCN)C(N)=O)[C@@H](C)CC)[C@@H](C)CC [Peptide C10-KR8] (Decanoyl-KRIWQRIK-NH2) | 6.2 (≈ 7.94 µg/mL) | 1.6 to 6.2 |  |  |  |  |  |  |  |  |  |  |  |  | 
2 | CCCCCCCCCC(=O)N[C@H](CCCCN)C(=O)N[C@H](CCCNC(=N)N)C(=O)N[C@@H](C(=O)N[C@H](Cc1c[nH]c2ccccc12)C(=O)N[C@H](CCC(N)=O)C(=O)N[C@H](CCCNC(=N)N)C(=O)N[C@@H](C(=O)N[C@H](CCCCN)C(N)=O)[C@H](C)CC)[C@H](C)CC [Peptide C10-KR8d] (Decanoyl-[dK][dR][dI][dW][dQ][dR][dI][dK]-NH2) |  |  | no changes | clear decrease in bacterial burden | 3.1 (≈ 3.97 µg/mL) | Yes | 1.6 to 3.1 | 1.6 to 3.1 | Yes | Yes | 1.6 to 3.1 | 1.6 to 3.1 | Yes | 1.6 to 3.1 | Yes
